The source made the active and inactive calls. The calls are words filed in the database; no cut-off is given here. A value given as a limit tells only on which side of the number the result lay.

For experiment [1], the target named is DNA (cytosine-5)-methyltransferase 1 (Homo sapiens, UniProt P26358). As to the kind of experiment: Inhibition of DNMT1 (unknown origin).
In a further experiment the test system is PANC-1. Briefly: Inhibition of colony formation in human PANC-1 cells at […] incubated for 14 days drug medium changed for every 2 days by crystal violet staining based analysis. It counts as cell-based. The note with it: dose 2.5 µM, time 14.0 day.
Experiment [2] addresses T1, Histone-lysine N-methyltransferase EHMT2 (Homo sapiens, UniProt Q96KQ7).
T1 sequence (Q96KQ7 whole entry): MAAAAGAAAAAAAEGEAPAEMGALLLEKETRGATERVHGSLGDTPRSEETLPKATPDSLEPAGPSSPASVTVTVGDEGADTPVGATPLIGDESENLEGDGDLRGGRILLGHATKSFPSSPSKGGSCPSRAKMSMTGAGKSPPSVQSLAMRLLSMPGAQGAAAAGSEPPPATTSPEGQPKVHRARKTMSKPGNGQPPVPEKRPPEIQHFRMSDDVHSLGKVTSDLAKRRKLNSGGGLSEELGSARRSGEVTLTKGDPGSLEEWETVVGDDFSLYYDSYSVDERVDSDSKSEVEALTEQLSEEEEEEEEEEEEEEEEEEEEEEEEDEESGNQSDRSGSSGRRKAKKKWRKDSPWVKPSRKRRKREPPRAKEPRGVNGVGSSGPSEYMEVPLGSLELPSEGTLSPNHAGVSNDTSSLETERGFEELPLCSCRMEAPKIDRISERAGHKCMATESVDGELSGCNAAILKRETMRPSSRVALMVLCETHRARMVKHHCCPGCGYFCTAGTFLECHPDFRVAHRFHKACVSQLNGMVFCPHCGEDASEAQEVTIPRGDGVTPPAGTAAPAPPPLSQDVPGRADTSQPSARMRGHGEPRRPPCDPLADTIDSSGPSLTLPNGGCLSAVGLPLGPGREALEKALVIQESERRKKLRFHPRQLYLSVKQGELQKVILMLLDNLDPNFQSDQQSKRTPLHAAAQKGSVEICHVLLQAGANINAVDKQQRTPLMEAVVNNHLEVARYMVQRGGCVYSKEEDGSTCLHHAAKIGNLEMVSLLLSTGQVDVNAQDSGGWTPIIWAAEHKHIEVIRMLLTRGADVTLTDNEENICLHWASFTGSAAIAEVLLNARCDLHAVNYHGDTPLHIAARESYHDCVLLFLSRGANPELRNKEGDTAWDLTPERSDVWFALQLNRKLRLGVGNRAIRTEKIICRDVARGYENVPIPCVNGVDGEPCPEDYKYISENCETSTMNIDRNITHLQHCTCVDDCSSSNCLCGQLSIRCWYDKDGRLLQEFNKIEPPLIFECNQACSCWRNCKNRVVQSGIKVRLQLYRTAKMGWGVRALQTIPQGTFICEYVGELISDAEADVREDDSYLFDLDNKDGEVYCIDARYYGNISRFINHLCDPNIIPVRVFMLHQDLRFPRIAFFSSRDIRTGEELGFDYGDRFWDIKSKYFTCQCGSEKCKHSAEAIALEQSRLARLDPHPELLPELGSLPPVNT
Briefly: Inhibition of G9a (unknown origin) by AlphaLISA assay.

DNA (cytosine-5)-methyltransferase 1, sequence (P26358 whole entry): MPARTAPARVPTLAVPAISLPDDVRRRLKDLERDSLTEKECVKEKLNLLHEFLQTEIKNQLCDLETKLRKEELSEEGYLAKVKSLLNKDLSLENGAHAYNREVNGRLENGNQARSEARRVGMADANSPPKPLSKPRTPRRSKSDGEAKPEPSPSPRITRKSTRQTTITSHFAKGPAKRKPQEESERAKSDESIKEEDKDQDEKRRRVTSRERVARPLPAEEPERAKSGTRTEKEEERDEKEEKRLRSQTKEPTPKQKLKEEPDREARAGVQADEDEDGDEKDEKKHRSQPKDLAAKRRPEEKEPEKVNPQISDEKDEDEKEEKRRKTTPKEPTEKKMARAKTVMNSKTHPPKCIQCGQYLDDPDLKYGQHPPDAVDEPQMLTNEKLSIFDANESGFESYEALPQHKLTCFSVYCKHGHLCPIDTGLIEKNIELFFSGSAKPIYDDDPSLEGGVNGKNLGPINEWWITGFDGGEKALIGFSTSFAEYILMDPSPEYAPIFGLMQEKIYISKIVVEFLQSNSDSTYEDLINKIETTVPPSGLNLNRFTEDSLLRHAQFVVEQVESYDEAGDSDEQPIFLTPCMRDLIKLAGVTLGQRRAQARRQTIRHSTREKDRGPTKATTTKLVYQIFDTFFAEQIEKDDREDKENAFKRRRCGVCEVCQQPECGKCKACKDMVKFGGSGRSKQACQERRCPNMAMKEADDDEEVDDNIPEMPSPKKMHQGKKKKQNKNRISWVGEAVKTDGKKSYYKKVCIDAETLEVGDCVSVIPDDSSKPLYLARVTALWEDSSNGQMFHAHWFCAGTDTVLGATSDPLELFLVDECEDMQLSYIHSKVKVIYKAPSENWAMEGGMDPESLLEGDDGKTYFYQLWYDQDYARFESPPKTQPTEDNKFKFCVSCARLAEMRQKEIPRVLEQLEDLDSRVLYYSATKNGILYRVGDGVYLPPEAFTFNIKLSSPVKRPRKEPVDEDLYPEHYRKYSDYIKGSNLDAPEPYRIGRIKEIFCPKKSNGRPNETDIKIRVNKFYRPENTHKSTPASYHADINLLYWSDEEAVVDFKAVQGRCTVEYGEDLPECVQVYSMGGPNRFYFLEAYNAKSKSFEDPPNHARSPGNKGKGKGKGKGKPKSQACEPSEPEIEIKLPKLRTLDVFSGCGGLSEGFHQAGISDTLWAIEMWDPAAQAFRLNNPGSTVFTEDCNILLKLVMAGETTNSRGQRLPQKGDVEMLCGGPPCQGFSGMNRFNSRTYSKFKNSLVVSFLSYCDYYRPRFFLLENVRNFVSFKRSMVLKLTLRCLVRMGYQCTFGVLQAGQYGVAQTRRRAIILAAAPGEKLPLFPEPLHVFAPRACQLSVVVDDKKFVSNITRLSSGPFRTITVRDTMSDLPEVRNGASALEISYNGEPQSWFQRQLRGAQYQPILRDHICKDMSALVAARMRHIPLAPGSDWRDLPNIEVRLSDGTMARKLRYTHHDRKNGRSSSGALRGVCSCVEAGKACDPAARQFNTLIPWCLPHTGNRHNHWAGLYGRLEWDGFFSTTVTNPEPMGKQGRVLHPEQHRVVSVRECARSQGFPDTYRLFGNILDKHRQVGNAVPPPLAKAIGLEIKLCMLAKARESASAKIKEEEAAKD

Turning to `C=CC(=O)N(C)c1nc(NC2CCN(C)CC2)c2cc(OC)c(OCCCN3CCCC3)cc2n1`, the IC50 is more than 20000 nM in experiment [1] and 8.5 nM in experiment [2]. Also, the inhibition result with PANC-1 was “Active”.

For the origin of these results see ChEMBL document CHEMBL5338815 (J Med Chem, 2023).
